Measurements from PMC9637222, “Autoinducer-2 and bile salts induce c-di-GMP synthesis to repress the T3SS via a T3SS chaperone” (Nature Communications, 2022).
Values joined by “and” are separate entries in the source; they are usually repeats but may differ in a detail not shown here. Equal entries are not always repeated. Where two headings read alike, the source gives them in different places.

Key:
SicA K27A = target: T1, SicA K27A (Salmonella typhimurium, UniProt P69066, K27A); format: binding, S. Typhimurium
T1 construct: His6 (N, cleaved yes); made in house; host or cells: E. coli BL21(DE3), pET-28a (pET28a-sicAK27A)

InvF = target: T2, InvF (Salmonella typhimurium, UniProt P69343); assay: ITC: c-di-GMP binding to InvF; set-up: His6 (N, cleaved yes); made in house; host or cells: E. coli BL21(DE3), pET-28a (pET28a-invF); species or system S. Typhimurium
T2 sequence (P69343 1-216): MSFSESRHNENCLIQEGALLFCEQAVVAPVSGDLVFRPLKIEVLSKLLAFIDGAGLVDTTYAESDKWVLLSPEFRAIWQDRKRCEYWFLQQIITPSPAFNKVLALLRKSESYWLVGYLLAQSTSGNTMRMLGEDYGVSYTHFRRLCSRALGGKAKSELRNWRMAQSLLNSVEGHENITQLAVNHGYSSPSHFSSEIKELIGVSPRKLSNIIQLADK

T3SS ATPase PA1697 = assay: ITC: c-di-GMP binding to T3SS ATPase PA1697; conditions: T3SS ATPase from P. aeruginosa
Description: (§1) Supplementary Fig. 25 Neither the T3SS ATPase InvC (STM2894) from S. Typhimurium nor the T3SS ATPase PA1697 from P. aeruginosa interacts with c-di-GMP
(§2) The binding affinity was evaluated by ITC analysis. ITC data and plots of injected heat for automatic injections of 100 μM c-di-GMP into the sample cell containing 10 μM InvC (a) or PA1697 (b) are shown inthe upper and lower plots, respectively. […]
(§3) the finalanalysis. Results shown are one representative of three experiments with similar results.

SicA Q34A = target: T3, SicA Q34A (Salmonella typhimurium, UniProt P69066, Q34A); format: binding, S. Typhimurium
T3 construct: His6 (N, cleaved yes); made in house; host or cells: E. coli BL21(DE3), pET-28a (pET28a-sicAQ34A)

CesD (WP_000379288) = target: T4, CesD (WP_000379288) (Escherichia coli O157:H7, UniProt Q8X6H6); format: binding, EHEC O157:H7; conditions: for Kd: ITC
T4 sequence (Q8X6H6 1-163): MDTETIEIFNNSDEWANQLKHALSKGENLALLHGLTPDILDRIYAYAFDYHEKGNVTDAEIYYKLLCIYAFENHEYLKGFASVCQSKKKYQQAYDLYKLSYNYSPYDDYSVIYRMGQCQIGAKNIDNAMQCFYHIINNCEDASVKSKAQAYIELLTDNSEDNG

IpgC (WP_000055835) = target: T5, IpgC (WP_000055835) (Shigella flexneri, UniProt P0A2U4); format: binding, S. flexneri serotype 2a; conditions: for Kd: ITC
T5 construct: His6 (N, cleaved yes); made in house; host or cells: E. coli BL21(DE3), pET-28a (pET28a-ipgC)

[1] = test system: T6, T3SS ATPase InvC (STM2894); assay: ITC: c-di-GMP binding to T3SS ATPase InvC; conditions: T3SS ATPase from S. Typhimurium
T6 construct: His6 (N, cleaved yes); made in house; host or cells: E. coli BL21(DE3) (pET28a-invC)
Description: as §1, §2, §3

SipC-His6 / SicA-HA = assay: Co-IP of SipC-His6 with SicA-HA in presence of c-di-GMP; conditions: dose-dependent
SicA = target: T7, SicA (Salmonella typhimurium, UniProt P69066); assay: ITC: nucleotide (c-di-GMP, c-di-AMP, cGMP) binding to SicA; set-up: species or system S. Typhimurium
T7 construct: His6 (N, cleaved yes); made in house; host or cells: E. coli BL21(DE3), pET-28a (pET28a-sicA)

VcrH (WP_005464462) = target: T8, VcrH (WP_005464462) (Vibrio parahaemolyticus, UniProt Q87P60); format: binding; conditions: for Kd: ITC
T8 sequence (Q87P60 1-162): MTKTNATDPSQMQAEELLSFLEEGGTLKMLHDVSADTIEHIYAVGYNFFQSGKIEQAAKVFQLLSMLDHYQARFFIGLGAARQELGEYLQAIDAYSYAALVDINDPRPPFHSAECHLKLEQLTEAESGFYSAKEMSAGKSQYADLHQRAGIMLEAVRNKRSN

SipB-His6 / SicA-HA = assay: Co-IP of SipB-His6 with SicA-HA in presence of c-di-GMP; conditions: dose-dependent
SicA D67A = target: T9, SicA D67A (Salmonella typhimurium, UniProt P69066, D67A); format: binding, S. Typhimurium
T9 construct: His6 (N, cleaved yes); made in house; host or cells: E. coli BL21(DE3), pET-28a (pET28a-sicAD67A)

SycD (WP_010891209) = target: T10, SycD (WP_010891209) (Yersinia enterocolitica, UniProt O87496); format: binding; conditions: for Kd: ITC
T10 sequence (O87496 1-168): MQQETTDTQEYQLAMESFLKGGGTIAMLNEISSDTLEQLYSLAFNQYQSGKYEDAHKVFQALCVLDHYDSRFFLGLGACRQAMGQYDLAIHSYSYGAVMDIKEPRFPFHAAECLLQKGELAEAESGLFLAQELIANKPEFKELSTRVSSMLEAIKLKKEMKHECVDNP

SicA D28A = target: T11, SicA D28A (Salmonella typhimurium, UniProt P69066, D28A); format: binding, S. Typhimurium
T11 construct: His6 (N, cleaved yes); made in house; host or cells: E. coli BL21(DE3), pET-28a (pET28a-sicAD28A)

[2] = range given for all 6 chaperones (PcrH, IpgC, SycD, CesD, BicA, VcrH), read-out: Kd
[3] = individual experiments, source data Fig. 5a

T9 sequence (P69066 whole entry D67A): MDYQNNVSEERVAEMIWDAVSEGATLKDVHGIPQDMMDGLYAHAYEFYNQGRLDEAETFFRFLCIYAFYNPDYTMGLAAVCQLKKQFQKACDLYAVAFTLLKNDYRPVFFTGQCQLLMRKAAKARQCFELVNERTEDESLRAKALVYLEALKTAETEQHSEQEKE
T5 sequence (P0A2U4 whole entry): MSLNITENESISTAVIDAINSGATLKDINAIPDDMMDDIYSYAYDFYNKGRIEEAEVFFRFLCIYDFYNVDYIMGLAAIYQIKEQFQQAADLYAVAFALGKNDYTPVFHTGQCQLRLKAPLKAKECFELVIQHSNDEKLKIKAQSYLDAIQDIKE
T11 sequence (P69066 whole entry D28A): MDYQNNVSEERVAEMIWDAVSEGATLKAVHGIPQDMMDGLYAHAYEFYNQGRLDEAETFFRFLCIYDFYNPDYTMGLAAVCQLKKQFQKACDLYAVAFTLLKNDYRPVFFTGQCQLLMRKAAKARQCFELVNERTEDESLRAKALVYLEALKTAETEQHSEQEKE
T3 sequence (P69066 whole entry Q34A): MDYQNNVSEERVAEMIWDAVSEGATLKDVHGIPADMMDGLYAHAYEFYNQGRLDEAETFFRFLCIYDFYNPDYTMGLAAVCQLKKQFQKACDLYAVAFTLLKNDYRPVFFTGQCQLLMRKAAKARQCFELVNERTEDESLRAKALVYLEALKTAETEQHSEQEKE
T7 sequence (P69066 whole entry): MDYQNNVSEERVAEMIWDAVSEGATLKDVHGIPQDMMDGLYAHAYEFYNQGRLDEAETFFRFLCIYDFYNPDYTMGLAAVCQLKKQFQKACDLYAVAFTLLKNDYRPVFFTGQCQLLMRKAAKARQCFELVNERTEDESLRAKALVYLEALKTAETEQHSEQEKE
T1 sequence (P69066 whole entry K27A): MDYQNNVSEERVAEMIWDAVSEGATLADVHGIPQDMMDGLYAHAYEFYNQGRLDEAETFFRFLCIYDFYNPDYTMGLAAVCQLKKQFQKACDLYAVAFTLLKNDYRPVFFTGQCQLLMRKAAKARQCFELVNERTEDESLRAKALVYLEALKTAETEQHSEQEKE

## Nc1nc2c(ncn2C2OC3COP(=O)(O)OC4C(COP(=O)(O)OC3C2O)OC(n2cnc3c(=O)[nH]c(N)nc32)C4O)c(=O)[nH]1 (stereo not shown) [c-di-GMP, Cyclic di-GMP]
SicA K27A; ITC binding stoichiometry n, individual replicates, Supplementary Figure 17a
  n, c-di-GMP binding to SicAK27A: 1.03 and 0.93 and 0.96
SicA K27A; binding to SicA K27A
  Kd: 41 µM and 33 µM and 39 µM
InvF
  Binding to InvF (in words): does not bind
T3SS ATPase PA1697
  Interaction with T3SS ATPase (in words): no interactions
SicA Q34A; ITC binding stoichiometry n, individual replicates, Supplementary Figure 17c
  n, c-di-GMP binding to SicAQ34A: 1.05 and 1.09
SicA Q34A; binding to SicA Q34A
  Kd: 15 µM and 12 µM and 14 µM
CesD (WP_000379288); ITC binding stoichiometry n, individual replicates, Supplementary Figure 22d
  n, c-di-GMP binding to CesD: 1.03 and 1.09 and 1.15
CesD (WP_000379288); individual replicates, Supplementary Figure 22d, read-out: Kd, c-di-GMP binding to CesD
  Kd: 0.17 µM and 0.18 µM and 0.19 µM
CesD (WP_000379288); [2]
  Kd: 0.15 to 0.22 µM
IpgC (WP_000055835); ITC binding stoichiometry n, individual replicates, Supplementary Figure 22b
  n, c-di-GMP binding to IpgC: 1.23 and 1.10 and 1.13
IpgC (WP_000055835); individual replicates, Supplementary Figure 22b, read-out: Kd, c-di-GMP binding to IpgC
  Kd: 0.2 µM and 0.25 µM and 0.22 µM
IpgC (WP_000055835); [2]
  Kd: 0.15 to 0.22 µM
[1]
  Interaction with T3SS ATPase (in words): no interactions
SipC-His6 / SicA-HA
  Effect on co-IP of SipC-His6 with SicA-HA (in words): decreased
SicA; c-di-GMP : SicA WT, mean ± s.d. of three independent experiments
  Kd: 0.21 ± 0.09 µM
SicA; [3]
  Kd: 0.32 µM and 0.1 µM
  n (complex stoichiometry): 1.14 and 1.11 and 1.21
VcrH (WP_005464462); ITC binding stoichiometry n, individual replicates, Supplementary Figure 22f
  n, c-di-GMP binding to VcrH: 1.12 and 1.10
VcrH (WP_005464462); individual replicates, Supplementary Figure 22f, read-out: Kd, c-di-GMP binding to VcrH
  Kd: 0.14 µM and 0.16 µM
VcrH (WP_005464462); [2]
  Kd: 0.15 to 0.22 µM
SipB-His6 / SicA-HA
  Effect on co-IP of SipB-His6 with SicA-HA (in words): decreased
SicA D67A; ITC binding stoichiometry n, individual replicates, Supplementary Figure 17d
  n, c-di-GMP binding to SicAD67A: 0.99 and 1.02 and 0.94
SicA D67A; binding to SicA D67A
  Kd: 33 µM and 34 µM and 32 µM
SycD (WP_010891209); ITC binding stoichiometry n, individual replicates, Supplementary Figure 22c
  n, c-di-GMP binding to SycD: 1.15 and 1.12
SycD (WP_010891209); individual replicates, Supplementary Figure 22c, read-out: Kd, c-di-GMP binding to SycD
  Kd: 0.18 µM and 0.15 µM and 0.16 µM
SycD (WP_010891209); [2]
  Kd: 0.15 to 0.22 µM
SicA D28A; ITC binding stoichiometry n, individual replicates, Supplementary Figure 17b
  n, c-di-GMP binding to SicAD28A: 1.08 and 1.02 and 0.98
SicA D28A; binding to SicA D28A
  Kd: 21 µM and 26 µM and 20 µM
